Source: US10844077B2, “Thiazolyl-containing compounds for treating proliferative diseases” (Dana-Farber Cancer Institute, Inc., priority 2014, dated 2020)
Several values for one entry are separate records, joined by “and”; a condition that tells them apart may be missing. Identical values can stand only once.

Tests used:
NDR1 = NDR1 (Homo sapiens (Human), UniProt Q15208); experiment: KINATIV assay; type: cell-based; conditions: 1 μM, 90 minutes, BCWM.1 cells
Method in brief: (§1)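 Harvest, lyse, probe: lysates take up an ATP-biotin probe directly, and ACTIVX identifies and quantifies the kinases bound.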

kinases in BCWM.1 cells [1] = biological target: kinases in BCWM.1 cells (Homo sapiens, UniProt O14965); experiment: KINATIV assay of compounds I-3 and I-9, lysate directly labeled with ATP-biotin probe (no GF); type: cell-based
Description: (§2) The cells were harvested and lysed. […] Bound kinases were identified and quantitated by ACTIVX as described in Patricelli et al., Biochemistry, 2007, 46(2): 350-358. The compounds were tested in duplicates against duplicate or quadruplicate control samples.

kinases in BCWM.1 cells [2] = biological target: kinases in BCWM.1 cells (Homo sapiens, UniProt P07948); experiment: as above; type: cell-based; conditions: LYN; Lys1; 1 μM; no GF
Description: as §2

kinases in BCWM.1 cells [3] = biological target: kinases in BCWM.1 cells (Homo sapiens, UniProt P31749); experiment: as above; type: cell-based; conditions: AKT1; ATP Loop; 1 μM; no GF
Description: as §2

kinases in BCWM.1 cells [4] = biological target: kinases in BCWM.1 cells (Homo sapiens, UniProt P42685); experiment: as above; type: cell-based; conditions: FRK; Activation Loop; 1 μM; no GF
Description: as §2

kinases in BCWM.1 cells [5] = biological target: kinases in BCWM.1 cells (Homo sapiens, UniProt P46734); experiment: as above; type: cell-based; conditions: MAP2K3; Lys2; 1 μM; no GF
Description: as §2

kinases in BCWM.1 cells [6] = biological target: kinases in BCWM.1 cells (Homo sapiens, UniProt P51451); experiment: as above; type: cell-based; conditions: BLK; Activation Loop; 1 μM; no GF
Description: as §2

kinases in BCWM.1 cells [7] = biological target: kinases in BCWM.1 cells (Homo sapiens, UniProt Q5TCX8); experiment: as above; type: cell-based; conditions: MLK4; Lys2; 1 μM; no GF
Description: as §2

CDK7 = CDK7 (Homo sapiens (Human), UniProt P50613); experiment: KINATIV assay; type: cell-based; conditions: 1 μM, 90 minutes, BCWM.1 cells
Method in brief: as §1

DNAPK = DNAPK (Homo sapiens (Human), UniProt P78527); experiment: KINATIV assay; type: cell-based; conditions: 1 μM, 90 minutes, BCWM.1 cells
Method in brief: as §1

IKKb = IKKb (Homo sapiens (Human), UniProt O14920); experiment: KINATIV assay; type: cell-based; conditions: 1 μM, 90 minutes, BCWM.1 cells
Chain of IKKb (O14920 whole entry): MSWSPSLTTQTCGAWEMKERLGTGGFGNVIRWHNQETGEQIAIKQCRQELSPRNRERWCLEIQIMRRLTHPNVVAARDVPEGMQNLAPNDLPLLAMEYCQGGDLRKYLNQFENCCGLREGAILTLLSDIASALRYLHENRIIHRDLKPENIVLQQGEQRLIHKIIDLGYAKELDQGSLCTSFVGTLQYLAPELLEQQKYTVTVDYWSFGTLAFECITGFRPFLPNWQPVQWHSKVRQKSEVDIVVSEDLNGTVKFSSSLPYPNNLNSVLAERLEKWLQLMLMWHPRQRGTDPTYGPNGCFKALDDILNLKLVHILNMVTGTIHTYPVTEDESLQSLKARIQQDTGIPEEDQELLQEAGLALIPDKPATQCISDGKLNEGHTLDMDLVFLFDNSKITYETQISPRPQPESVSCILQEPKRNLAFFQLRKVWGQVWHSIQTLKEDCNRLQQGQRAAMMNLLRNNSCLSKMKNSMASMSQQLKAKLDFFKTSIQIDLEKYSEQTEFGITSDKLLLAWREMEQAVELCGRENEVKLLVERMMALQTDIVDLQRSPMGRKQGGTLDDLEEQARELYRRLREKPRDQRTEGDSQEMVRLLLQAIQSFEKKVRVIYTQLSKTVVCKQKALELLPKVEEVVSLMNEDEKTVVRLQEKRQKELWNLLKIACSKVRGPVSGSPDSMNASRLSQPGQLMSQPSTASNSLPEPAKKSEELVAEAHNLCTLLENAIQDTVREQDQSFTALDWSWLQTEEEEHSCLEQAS
Method in brief: as §1

JAK3 domain2 = JAK3 domain2 (Homo sapiens (Human), UniProt P52333); experiment: KINATIV assay; type: cell-based; conditions: 1 μM, 90 minutes, BCWM.1 cells
Method in brief: as §1

MAP2K1, MAP2K2 = experiment: KINATIV assay; type: cell-based; conditions: 1 μM, 90 minutes, BCWM.1 cells
Method in brief: as §1

p38a = p38a (Homo sapiens (Human), UniProt Q16539); experiment: KINATIV assay; type: cell-based; conditions: 1 μM, 90 minutes, BCWM.1 cells
Chain of p38a (Q16539 whole entry): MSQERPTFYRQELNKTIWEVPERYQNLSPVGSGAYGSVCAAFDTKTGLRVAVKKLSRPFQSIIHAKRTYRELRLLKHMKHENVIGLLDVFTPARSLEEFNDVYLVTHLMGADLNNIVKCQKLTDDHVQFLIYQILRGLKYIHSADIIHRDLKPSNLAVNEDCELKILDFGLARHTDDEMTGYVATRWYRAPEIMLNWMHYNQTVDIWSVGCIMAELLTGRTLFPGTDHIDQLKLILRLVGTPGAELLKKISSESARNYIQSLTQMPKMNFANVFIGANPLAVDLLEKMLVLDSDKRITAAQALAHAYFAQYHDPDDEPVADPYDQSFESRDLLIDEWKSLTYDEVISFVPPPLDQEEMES
Method in brief: as §1

kinases in BCWM.1 cells [8] = biological target: kinases in BCWM.1 cells (Homo sapiens, UniProt O14733); type: cell-based; conditions: MAP2K7; Lys2; 1 μM; GF
Chain of kinases in BCWM.1 cells (Homo sapiens, UniProt O14733) (O14733 2-419 limits assumed): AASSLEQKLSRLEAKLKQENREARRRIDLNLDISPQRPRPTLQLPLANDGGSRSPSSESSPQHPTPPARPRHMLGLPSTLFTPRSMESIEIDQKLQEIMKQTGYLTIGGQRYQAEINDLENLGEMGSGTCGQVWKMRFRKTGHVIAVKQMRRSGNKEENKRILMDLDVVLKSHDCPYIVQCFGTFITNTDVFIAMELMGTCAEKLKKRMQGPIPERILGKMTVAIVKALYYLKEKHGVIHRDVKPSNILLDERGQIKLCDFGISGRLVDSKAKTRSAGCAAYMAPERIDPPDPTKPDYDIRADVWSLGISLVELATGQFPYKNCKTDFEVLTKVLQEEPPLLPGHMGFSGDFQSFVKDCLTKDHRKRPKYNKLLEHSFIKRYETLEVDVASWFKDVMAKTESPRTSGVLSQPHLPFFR
Description: as §2

kinases in BCWM.1 cells [9] = biological target: kinases in BCWM.1 cells (Homo sapiens, UniProt P23743); type: cell-based; conditions: DGKA; ATP; 1 μM; GF
Description: as §2

kinases in BCWM.1 cells [10] = biological target: kinases in BCWM.1 cells (Homo sapiens, UniProt P49841); type: cell-based; conditions: GSK3B; Lys2; 1 μM; GF
Description: as §2

kinases in BCWM.1 cells [11] = biological target: kinases in BCWM.1 cells (Homo sapiens, UniProt Q06187); type: cell-based; conditions: BTK; Activation Loop; 1 μM; GF
Chain of kinases in BCWM.1 cells (Homo sapiens, UniProt Q06187) (Q06187 2-659 limits assumed): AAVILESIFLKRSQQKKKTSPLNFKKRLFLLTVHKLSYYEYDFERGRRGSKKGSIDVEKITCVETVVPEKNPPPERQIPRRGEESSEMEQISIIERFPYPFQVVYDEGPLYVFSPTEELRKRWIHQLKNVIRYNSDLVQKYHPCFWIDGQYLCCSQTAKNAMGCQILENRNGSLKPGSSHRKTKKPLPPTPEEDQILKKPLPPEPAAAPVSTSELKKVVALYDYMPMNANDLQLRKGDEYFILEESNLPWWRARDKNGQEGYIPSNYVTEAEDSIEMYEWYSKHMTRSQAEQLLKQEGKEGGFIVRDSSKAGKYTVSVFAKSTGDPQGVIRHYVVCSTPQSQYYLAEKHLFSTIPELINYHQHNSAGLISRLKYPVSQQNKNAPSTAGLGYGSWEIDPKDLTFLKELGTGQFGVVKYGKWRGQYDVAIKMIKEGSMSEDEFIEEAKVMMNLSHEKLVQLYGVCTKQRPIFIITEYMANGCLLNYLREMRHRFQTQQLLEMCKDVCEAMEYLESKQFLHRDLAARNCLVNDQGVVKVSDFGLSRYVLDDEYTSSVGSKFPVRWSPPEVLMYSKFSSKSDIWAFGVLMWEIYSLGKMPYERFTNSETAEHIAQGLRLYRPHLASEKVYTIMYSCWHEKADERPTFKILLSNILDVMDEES
Description: as §2

kinases in BCWM.1 cells [12] = biological target: kinases in BCWM.1 cells (Homo sapiens, UniProt Q13163); type: cell-based; conditions: MAP2K5; Lys2; 1 μM; GF
Description: as §2

kinases in BCWM.1 cells [13] = biological target: kinases in BCWM.1 cells (Homo sapiens, UniProt Q13557); type: cell-based; conditions: CaMK2d; Lys1; 1 μM; GF
Chain of kinases in BCWM.1 cells (Homo sapiens, UniProt Q13557) (Q13557 2-499 limits assumed): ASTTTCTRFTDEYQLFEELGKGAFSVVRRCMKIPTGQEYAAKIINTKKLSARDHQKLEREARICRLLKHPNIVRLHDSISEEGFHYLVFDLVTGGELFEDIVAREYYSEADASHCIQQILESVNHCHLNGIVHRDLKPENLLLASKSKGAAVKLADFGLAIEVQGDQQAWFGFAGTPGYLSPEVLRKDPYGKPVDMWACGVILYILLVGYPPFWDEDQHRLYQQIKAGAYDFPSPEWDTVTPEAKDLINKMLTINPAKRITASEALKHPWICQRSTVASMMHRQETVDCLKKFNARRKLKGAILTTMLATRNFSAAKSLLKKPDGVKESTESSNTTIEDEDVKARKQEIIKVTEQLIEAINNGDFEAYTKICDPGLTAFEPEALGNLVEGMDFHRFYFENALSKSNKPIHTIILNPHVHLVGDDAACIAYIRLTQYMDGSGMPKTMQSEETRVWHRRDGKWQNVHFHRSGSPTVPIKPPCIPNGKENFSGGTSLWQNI
Description: as §2

kinases in BCWM.1 cells [14] = biological target: kinases in BCWM.1 cells (Homo sapiens, UniProt Q8NB16); type: cell-based; conditions: MLKL; Lys1; 1 μM; GF
Description: as §2

kinases in BCWM.1 cells [15] = biological target: kinases in BCWM.1 cells (Homo sapiens, UniProt Q99759); type: cell-based; conditions: MAP3K3; Lys1; 1 μM; GF
Description: as §2

kinases in BCWM.1 cells [16] = biological target: kinases in BCWM.1 cells (Homo sapiens, UniProt Q9P2K8); type: cell-based; conditions: GCN2; Lys2; 1 μM; GF
Description: as §2

BTK = BTK (Homo sapiens (Human), UniProt Q06187); experiment: BTK inhibitory activity; type: biochemical
Chain of BTK (Q06187 whole entry, looked up): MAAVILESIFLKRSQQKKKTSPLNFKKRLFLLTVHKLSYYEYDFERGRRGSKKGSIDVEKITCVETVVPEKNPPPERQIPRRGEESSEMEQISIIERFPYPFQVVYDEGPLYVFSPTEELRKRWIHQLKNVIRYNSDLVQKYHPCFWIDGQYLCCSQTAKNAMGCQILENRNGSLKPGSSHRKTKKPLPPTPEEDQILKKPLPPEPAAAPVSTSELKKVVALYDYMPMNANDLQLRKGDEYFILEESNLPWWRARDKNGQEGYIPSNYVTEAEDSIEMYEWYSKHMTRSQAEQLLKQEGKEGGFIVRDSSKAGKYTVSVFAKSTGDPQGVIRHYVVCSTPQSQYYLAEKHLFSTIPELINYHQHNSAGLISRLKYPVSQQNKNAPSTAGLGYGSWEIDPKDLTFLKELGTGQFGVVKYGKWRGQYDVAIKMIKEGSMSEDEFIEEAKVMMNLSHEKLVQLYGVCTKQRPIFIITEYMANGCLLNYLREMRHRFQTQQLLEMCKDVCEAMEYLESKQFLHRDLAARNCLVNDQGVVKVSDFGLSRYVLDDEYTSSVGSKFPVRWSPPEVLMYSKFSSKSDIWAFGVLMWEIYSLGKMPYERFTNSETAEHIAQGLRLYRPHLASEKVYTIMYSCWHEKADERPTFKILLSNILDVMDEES

BCWM.1 = experiment: CellTiter-Glo Luminescent cell viability assay; type: cell-based; conditions: cell survival, 72 hours
Description: (§3) The inhibitory activities of exemplary compounds described herein against select protein kinases and cells were determined. Cell survival following treatment of exemplary compounds described herein was assessed by CellTiter-Glo® Luminescent cell viability assay (Promega). The cells were seeded into 384 well plates with the EL406 Combination Washer Dispenser (BioTek Instruments, Inc.), and a series diluted exemplary compounds (20˜0.0006 μM) were injected into the culture media with the JANUS Automated Workstation (PerkinElmer Inc.). The cells were treated for 72 hours at 37° C. with 5% CO2. Luminescent measurement is performed using the 2104 Envision® Multilabel Reader (PerkinElmer Inc.). EC50 values were calculated with […] PRISM software.

HBL-1 = experiment: CellTiter-Glo Luminescent cell viability assay; type: cell-based; conditions: cell survival, 72 hours
Description: as §3

MWCL-1 = experiment: CellTiter-Glo Luminescent cell viability assay; type: cell-based; conditions: cell survival, 72 hours
Description: as §3

OCI-Ly19 = experiment: CellTiter-Glo Luminescent cell viability assay; type: cell-based; conditions: cell survival, 72 hours
Description: as §3

Ramos = experiment: CellTiter-Glo Luminescent cell viability assay; type: cell-based; conditions: cell survival, 72 hours
Description: as §3

TMD-8 = experiment: CellTiter-Glo Luminescent cell viability assay; type: cell-based; conditions: cell survival, 72 hours
Description: as §3

SLK = SLK (Homo sapiens (Human), UniProt Q9H2G2); experiment: KINATIV assay; type: cell-based; conditions: 1 μM, 90 minutes, BCWM.1 cells
Chain of SLK (Q9H2G2 whole entry): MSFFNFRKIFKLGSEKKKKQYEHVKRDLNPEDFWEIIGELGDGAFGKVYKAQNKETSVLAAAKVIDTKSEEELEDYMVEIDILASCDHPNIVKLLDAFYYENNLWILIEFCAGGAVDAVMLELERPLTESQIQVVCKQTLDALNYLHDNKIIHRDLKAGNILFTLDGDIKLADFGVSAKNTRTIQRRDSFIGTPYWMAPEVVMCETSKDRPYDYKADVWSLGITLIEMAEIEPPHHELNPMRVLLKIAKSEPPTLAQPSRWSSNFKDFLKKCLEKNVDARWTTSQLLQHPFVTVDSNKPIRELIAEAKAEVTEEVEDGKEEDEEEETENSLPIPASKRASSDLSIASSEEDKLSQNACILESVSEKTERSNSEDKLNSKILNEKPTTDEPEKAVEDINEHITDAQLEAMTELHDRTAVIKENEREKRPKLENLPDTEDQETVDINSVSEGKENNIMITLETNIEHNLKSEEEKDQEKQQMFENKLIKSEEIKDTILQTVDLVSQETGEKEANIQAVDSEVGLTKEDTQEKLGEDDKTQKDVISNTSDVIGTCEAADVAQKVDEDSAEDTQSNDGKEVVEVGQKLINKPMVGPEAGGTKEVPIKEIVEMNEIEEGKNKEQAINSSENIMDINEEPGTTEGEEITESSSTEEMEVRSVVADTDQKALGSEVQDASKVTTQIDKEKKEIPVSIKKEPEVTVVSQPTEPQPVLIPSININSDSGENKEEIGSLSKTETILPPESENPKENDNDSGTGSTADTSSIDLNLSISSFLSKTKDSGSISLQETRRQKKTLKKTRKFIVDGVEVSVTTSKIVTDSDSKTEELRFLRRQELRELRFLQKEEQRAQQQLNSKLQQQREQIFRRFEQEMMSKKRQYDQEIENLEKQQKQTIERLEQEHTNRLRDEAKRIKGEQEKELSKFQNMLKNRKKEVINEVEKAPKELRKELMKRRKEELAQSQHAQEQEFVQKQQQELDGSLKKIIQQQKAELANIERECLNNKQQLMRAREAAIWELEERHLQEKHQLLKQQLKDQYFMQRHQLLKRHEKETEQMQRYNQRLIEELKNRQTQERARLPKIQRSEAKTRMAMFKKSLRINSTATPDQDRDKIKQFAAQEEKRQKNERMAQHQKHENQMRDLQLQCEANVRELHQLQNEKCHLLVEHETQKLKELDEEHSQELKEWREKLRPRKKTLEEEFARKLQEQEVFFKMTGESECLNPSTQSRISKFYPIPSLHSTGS
Method in brief: as §1

Chain of NDR1 (Q15208 whole entry): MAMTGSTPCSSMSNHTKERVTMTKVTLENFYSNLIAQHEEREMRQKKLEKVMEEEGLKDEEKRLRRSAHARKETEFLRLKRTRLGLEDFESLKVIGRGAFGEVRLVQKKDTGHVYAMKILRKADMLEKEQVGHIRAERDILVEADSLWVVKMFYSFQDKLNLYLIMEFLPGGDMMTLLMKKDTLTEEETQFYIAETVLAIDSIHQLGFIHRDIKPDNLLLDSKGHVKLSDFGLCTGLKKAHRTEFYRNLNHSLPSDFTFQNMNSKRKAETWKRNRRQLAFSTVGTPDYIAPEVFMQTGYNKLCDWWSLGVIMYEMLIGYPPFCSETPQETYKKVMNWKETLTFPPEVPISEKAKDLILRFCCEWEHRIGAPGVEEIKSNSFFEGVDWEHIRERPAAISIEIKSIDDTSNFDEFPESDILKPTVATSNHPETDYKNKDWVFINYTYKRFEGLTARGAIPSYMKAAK

## C=CC(=O)N1CCC(CNc2nccc(Nc3ncc(C(=O)Nc4c(C)cccc4C)s3)n2)C1 (racemic) [Example I-8]
NDR1
  % change of MS signal compared to control sample: −0.8% and 2.2%

## C=CC(=O)N1CC[C@H](Nc2nccc(Nc3ncc(C(=O)Nc4c(C)cccc4C)s3)n2)C1 [Example I-3]
Kinases in BCWM.1 cells [1]
  % change of MS signal compared to control sample: 12.7%
Kinases in BCWM.1 cells [2]
  % change of MS signal compared to control sample: >98%
Kinases in BCWM.1 cells [3]
  % change of MS signal compared to control sample: −20.4% and −21.9%
Kinases in BCWM.1 cells [4]
  % change of MS signal compared to control sample: 92.4% and 95.8%
Kinases in BCWM.1 cells [5]
  % change of MS signal compared to control sample: 15.6% and 5.8%
Kinases in BCWM.1 cells [6]
  % change of MS signal compared to control sample: >96%
Kinases in BCWM.1 cells [7]
  % change of MS signal compared to control sample: −3.8% and −11.8%

## C=CC(=O)N1CC[C@@H](Nc2nccc(Nc3ncc(C(=O)Nc4c(C)cccc4C)s3)n2)C1 [Example I-4]
CDK7
  % change of MS signal compared to control sample: 21.6% and 16.8%
DNAPK
  % change of MS signal compared to control sample: −80.8%
IKKb
  % change of MS signal compared to control sample: 3.1% and 4.4%
JAK3 domain2
  % change of MS signal compared to control sample: −30.8%

## C=CC(=O)N1CCCCC(Nc2nccc(Nc3ncc(C(=O)Nc4c(C)cccc4C)s3)n2)C1 (stereo not shown) [Example I-7]
MAP2K1, MAP2K2
  % change of MS signal compared to control sample: 7.4%
p38a
  % change of MS signal compared to control sample: 69.8% and 51.2%

## CCC(=O)N1CC[C@H](Nc2nccc(Nc3ncc(C(=O)Nc4c(C)cccc4C)s3)n2)C1 [Example I-9]
Kinases in BCWM.1 cells [8]
  % change of MS signal compared to control sample: −2.8% and −0.3%
Kinases in BCWM.1 cells [9]
  % change of MS signal compared to control sample: −1.5% and −6.6%
Kinases in BCWM.1 cells [10]
  % change of MS signal compared to control sample: −9.8% and −1.3%
Kinases in BCWM.1 cells [11]
  % change of MS signal compared to control sample: 96.7% and 70.7%
Kinases in BCWM.1 cells [12]
  % change of MS signal compared to control sample: 16.8% and 16.3%
Kinases in BCWM.1 cells [13]
  % change of MS signal compared to control sample: −8.1% and −8.2%
Kinases in BCWM.1 cells [14]
  % change of MS signal compared to control sample: −4.7% and −3.9%
Kinases in BCWM.1 cells [15]
  % change of MS signal compared to control sample: −13.7% and −19.7%
Kinases in BCWM.1 cells [16]
  % change of MS signal compared to control sample: −18.8% and −10.7%

## C=CC(=O)N1CCC(Cn2ccc(Nc3ncc(C(=O)Nc4c(C)cccc4Cl)s3)n2)C1 (stereo not shown) [II-1]
BTK
  IC50: 1.1 nM
BCWM.1
  EC50: 84 nM
HBL-1
  EC50: 735 nM
MWCL-1
  EC50: 121 nM
OCI-Ly19
  EC50: 7880 nM
Ramos
  EC50: > 20000 nM
TMD-8
  EC50: 573 nM
SLK
  % change of MS signal compared to control sample: 0.0% and −3.6%
